{"source": "patent US8642087B1", "about": "“Compounds and methods for reducing oxidative stress” (University of Kentucky Research Foundation, priority 2010, dated 2014)", "key": {"HUVECs [1]": {"test_system": "HUVECs", "test": "H2O2-induced oxidative stress injury to HUVECs, cell viability by MTT assay", "type": "cell-based, human", "details": "for cell viability compared to untreated control cells: pre-treatment 2 hrs, then 500 μM H2O2, 24 hrs", "method": "To assess the effect of H2O2-induced oxidative stress injury to HUVECs in the presence of PAβAE degradation products, cell viability was measured and used as a marker of the injury to the cells subsequent to exposure to the degradation products of PAβAE and H2O2. […] Cells were exposed to antioxidants at different concentrations and a final H2O2 concentration of 500 μM. 24 hrs later, cell viability was measured using MTT assay as described above."}, "HUVECs [2]": {"test_system": "HUVECs", "test": "HNE-induced oxidative stress injury to HUVEC monolayer, transendothelial electrical resistance (TEER)", "type": "cell-based, human", "details": "20 hours; degradation products 100 μg/mL alone; HNE 30 μM alone", "method": "To assess the effect of 4-hydroxy-2-trans-nonenal (HNE)-induced oxidative stress injury to HUVECs in the presence of PAβAE degradation products, transendothelial electrical resistance (TEER) values were measured and used to monitor the permeability and injury of the cells subsequent to exposure to the degradation products of PAβAE and FINE. Briefly, HUVECs were seeded into 24 well plate Transwell inserts (Corning Costar Transwell Plates). Wells were rinsed with HBSS and media replaced every other day. TEER values (EVOM II reader, World Precision Instruments) were monitored every day until resistance stabilization after approximately 7 days. HUVECs were treated with degradation products of PAβAE, including 10% quercetin multiacrylate (QMA) and 10% curcumin multiacrylate (CMA), at a concentration of 100 μg/mL in the cell media for 1 hour. Following prophylactic incubation, and without removing PABAE degradation products, FINE was added to a final concentration 30 μM to induce oxidative injury. TEER was measured before cells were seeded, immediately before addition PABAE degradation products, and 20 hours following FINE incubation, which is consistent with maximum FINE induced injury. Change in TEER was calculated as shown below in Eq. 4. Change in TEER=(Ω20 hr−ΩTranswell insert)/(Ω0 hr−ΩTranswell insert) (4)"}, "[3]": {"test_system": "human umbilical vein endothelial cells (HUVECs)", "details": "24 h", "experimental": "(§1) To further examine the properties of the PAβAE hydrogels and their ability to be used as a polymer that is capable of controllably releasing an antioxidant molecule, the cytotoxicity of PAβAE degradation products was measured. In this analysis, human umbilical vein endothelial cells (HUVECs) were first purchased from Lonza (Allendale, N.J.) and cultured in EGM-2 media with 2% fetal bovine serum at 37° C. in a humidified atmosphere of 5% CO2, with HUVECs in passages 3 to 5 then being used. To assess the cytotoxicity of the degradation products, the HUVECs were then treated with degradation products of the PAβAEs at different concentrations and a MTT assay was used to measure cell viability after treating cells with the different concentrations of PAβAE degradation products. Briefly, HUVECs were seeded onto a 96-well plate at a cell density of 35,000 cells/cm^2, and, 24 hrs later, cell media was replaced with treatment solutions. 24 hrs post treatment, treatment solution was removed, cells were washed twice in PBS, and 200 μL of 0.5 mg/ml MTT solution in cell media was added to each well. The 96-well plate was then incubated at 37° C. for 12 hrs and the cell media was gently removed from the wells. 100 μL of DMSO was added to each well to dissolve the formazan product. The absorbance intensity was recorded, at 570 nm for formazan and at 690 for background, using a Cary-50 Bio UV-Visible spectrophotometer equipped with a Cary 50 MPR microplate reader (Varian, Santa Clara, Calif.).\n(§2) PAβAE degradation products were then freeze dried and dissolved in DMSO at a concentration of 100 mg/ml. These concentrated DMSO solutions were then used to prepare fresh dilute solutions of PAβAE degradation products in cell media. Cells were treated with these PAβAE solutions for their cytotoxicity and their effect on cellular oxidative stress levels. To prepare quercetin and curcumin solutions, antioxidants were dissolved in DMSO at a concentration of 10 mg/ml and diluted in cell media."}, "HUVECs [4]": {"test_system": "HUVECs", "details": "literature, cited from earlier work"}, "in vitro": {"test": "in vitro", "details": "human", "experimental": "as §1, §2"}, "[5]": {"test_system": "human normal liver cells L-02", "details": "literature; cited from earlier work"}}}
{"smiles": "OO", "note": "[H2O2, hydrogen peroxide]", "values": [{"measurement": "viability at 500 µM", "setting": "HUVECs [1]; Homo sapiens, HUVEC, 500 μM H2O2 only, 24 hrs, read-out: cell viability compared to untreated control cells", "result": 72.9, "unit": "%"}]}
{"smiles": "CCCCCC(O)/C=C/C=O", "note": "(stereo not drawn) [HNE, 4-hydroxy-2-trans-nonenal]", "values": [{"measurement": "Change in TEER compared to the TEER measurement at 0 hours", "setting": "HUVECs [2]", "result": "75±2"}]}
{"smiles": "COc1cc(/C=C/C(=O)CC(=O)/C=C/c2ccc(O)c(OC)c2)ccc1O", "note": "[curcumin]", "values": [{"measurement": "cell viability compared to untreated control cells", "setting": "HUVECs [1]", "result": "57.7 ± 1.6"}, {"measurement": "cell death", "setting": "[3]; 5 μg/ml", "result": 40, "unit": "%"}, {"measurement": "previously reported IC50 value for HUVECs", "setting": "HUVECs [4]", "result": 10.8, "unit": "µg/mL"}, {"measurement": "IC50 at 24 h", "setting": "in vitro", "result": 6.8, "unit": "µg/mL"}]}
{"smiles": "O=c1c(O)c(-c2ccc(O)c(O)c2)oc2cc(O)cc(O)c12", "note": "[quercetin, Quercetin]", "values": [{"measurement": "cell viability compared to untreated control cells", "setting": "HUVECs [1]", "result": "101.13 ± 3.8"}, {"measurement": "cytotoxicity (in words)", "setting": "[3]", "result": "toxicity to HUVECs was note observed up to a concentration of 100 μg/ml"}, {"measurement": "previously reported IC50 value for HUVECs", "setting": "HUVECs [4]", "result": 18.4, "unit": "µg/mL"}, {"measurement": "IC50", "setting": "HUVECs [4]; read-out: previously reported IC50 value for HUVECs", "result": 61, "unit": "µM"}, {"measurement": "IC50", "setting": "[5]", "result": 113, "unit": "µM"}]}
